Laboratory results as given in the NIST ThermoML archive (doi:10.1016/j.fluid.2013.06.041).
Numbers after ± are expanded uncertainties.

Key:
[1] = 101.33 kPa, Liquid, Vibrating tube method
[2] = molar heat capacity at constant pressure; settings: 101.33 kPa, Liquid, Small sample (50 mg) DSC
[3] = xn = mol fraction of the nth substance listed; settings: 101 kPa, Liquid, Small sample (50 mg) DSC

OCCO [1,2-ethanediol]
Settings | mass density, 283.15 K [kg/m3] | mass density, 293.15 K [kg/m3] | mass density, 303.15 K [kg/m3] | mass density, 313.15 K [kg/m3] | molar heat capacity at constant pressure, 283.15 K [J/K/mol] | molar heat capacity at constant pressure, 293.15 K [J/K/mol] | molar heat capacity at constant pressure, 298.15 K [J/K/mol] | molar heat capacity at constant pressure, 303.15 K [J/K/mol] | molar heat capacity at constant pressure, 313.15 K [J/K/mol]
[1] | 1120.39 ± 0.22 | 1113.34 ± 0.22 | 1106.23 ± 0.21 | 1099.07 ± 0.21 | – | – | – | – | –
[2] | – | – | – | – | 145.38 ± 6.2 | 148.53 ± 6.3 | 150.22 ± 6.4 | 151.96 ± 6.4 | 155.49 ± 6.6

CCCCC(O)CO (configuration not stated) [1,2-hexanediol]
Settings | mass density, 283.15 K [kg/m3] | mass density, 293.15 K [kg/m3] | mass density, 298.15 K [kg/m3] | mass density, 303.15 K [kg/m3] | mass density, 313.15 K [kg/m3] | molar heat capacity at constant pressure, 283.15 K [J/K/mol] | molar heat capacity at constant pressure, 293.15 K [J/K/mol] | molar heat capacity at constant pressure, 298.15 K [J/K/mol] | molar heat capacity at constant pressure, 303.15 K [J/K/mol] | molar heat capacity at constant pressure, 313.15 K [J/K/mol]
[1] | 958.85 ± 0.79 | 951.73 ± 0.78 | 948.1 ± 0.78 | 944.44 ± 0.77 | 937.06 ± 0.76 | – | – | – | – | –
[2] | – | – | – | – | – | 277.11 ± 12 | 287.76 ± 12 | 293.1 ± 12 | 298.44 ± 13 | 309.15 ± 13

OCCCO [propan-1,3-diol]
Settings | mass density, 283.15 K [kg/m3] | mass density, 293.15 K [kg/m3] | mass density, 298.15 K [kg/m3] | mass density, 303.15 K [kg/m3] | mass density, 313.15 K [kg/m3] | molar heat capacity at constant pressure, 283.15 K [J/K/mol] | molar heat capacity at constant pressure, 293.15 K [J/K/mol] | molar heat capacity at constant pressure, 298.15 K [J/K/mol] | molar heat capacity at constant pressure, 303.15 K [J/K/mol] | molar heat capacity at constant pressure, 313.15 K [J/K/mol]
[1] | 1059.14 ± 0.96 | 1052.85 ± 0.95 | 1049.68 ± 0.94 | 1046.51 ± 0.93 | 1040.12 ± 0.92 | – | – | – | – | –
[2] | – | – | – | – | – | 169.44 ± 7.2 | 174.37 ± 7.4 | 176.91 ± 7.5 | 179.52 ± 7.6 | 185.09 ± 7.9

CC(O)CO (configuration not stated) [1,2-propanediol]
Settings | mass density, 283.15 K [kg/m3] | mass density, 293.15 K [kg/m3] | mass density, 298.15 K [kg/m3] | mass density, 303.15 K [kg/m3] | mass density, 313.15 K [kg/m3] | molar heat capacity at constant pressure, 283.15 K [J/K/mol] | molar heat capacity at constant pressure, 293.15 K [J/K/mol] | molar heat capacity at constant pressure, 298.15 K [J/K/mol] | molar heat capacity at constant pressure, 303.15 K [J/K/mol] | molar heat capacity at constant pressure, 313.15 K [J/K/mol]
[1] | 1043.89 ± 0.22 | 1036.58 ± 0.22 | 1032.86 ± 0.22 | 1029.1 ± 0.22 | 1021.48 ± 0.22 | – | – | – | – | –
[2] | – | – | – | – | – | 183.26 ± 7.8 | 188.62 ± 8 | 191.29 ± 8.1 | 193.95 ± 8.2 | 199.25 ± 8.5

CCCCC(O)CO (configuration not stated) [1,2-hexanediol] + O
excess molar heat capacity [J/K/mol], [3]
Settings | 283.15 K | 293.15 K | 298.15 K | 303.15 K | 313.15 K
x1 = 0.04991 | – | 0.35 ± 0.43 | – | 1.74 ± 0.43 | 2.85 ± 0.44
x1 = 0.09952 | – | – | 0.87 ± 0.43 | 1.95 ± 0.43 | 3.92 ± 0.45
x1 = 0.1989 | – | 0.68 ± 0.43 | 1.97 ± 0.43 | 3.16 ± 0.44 | 5.28 ± 0.45
x1 = 0.2988 | – | 1.31 ± 0.43 | 2.52 ± 0.44 | 3.76 ± 0.44 | 5.95 ± 0.46
x1 = 0.4015 | – | 0.89 ± 0.43 | 2.19 ± 0.44 | 3.35 ± 0.44 | 5.35 ± 0.46
x1 = 0.4841 | – | 1.13 ± 0.43 | 2.22 ± 0.44 | 3.15 ± 0.44 | 4.97 ± 0.45
x1 = 0.5535 | – | 1.45 ± 0.43 | 2.33 ± 0.44 | 3.16 ± 0.44 | –
x1 = 0.6972 | – | 0.9 ± 0.43 | 1.63 ± 0.43 | 2.27 ± 0.44 | 3.48 ± 0.44
x1 = 0.7927 | – | 0.92 ± 0.43 | 1.26 ± 0.43 | 1.52 ± 0.43 | 2.27 ± 0.44
x1 = 0.8822 | – | 0.82 ± 0.43 | 0.94 ± 0.43 | 0.89 ± 0.43 | 1.65 ± 0.43
x1 = 0.9437 | 0.04 | 0.68 ± 0.43 | 0.47 ± 0.43 | 0.22 ± 0.43 | 0.62 ± 0.43

OCCCCO [1,4-butanediol]
Settings | mass density, 283.15 K [kg/m3] | mass density, 293.15 K [kg/m3] | mass density, 298.15 K [kg/m3] | mass density, 303.15 K [kg/m3] | mass density, 313.15 K [kg/m3] | molar heat capacity at constant pressure, 283.15 K [J/K/mol] | molar heat capacity at constant pressure, 293.15 K [J/K/mol] | molar heat capacity at constant pressure, 298.15 K [J/K/mol] | molar heat capacity at constant pressure, 303.15 K [J/K/mol] | molar heat capacity at constant pressure, 313.15 K [J/K/mol]
[1] | 1022.21 ± 0.3 | 1016.11 ± 0.3 | 1013.06 ± 0.3 | 1009.99 ± 0.29 | 1003.85 ± 0.29 | – | – | – | – | –
[2] | – | – | – | – | – | 195.51 ± 8.3 | 200.85 ± 8.5 | 203.73 ± 8.6 | 206.71 ± 8.8 | 212.96 ± 9

OCCO [1,2-ethanediol] + O
excess molar heat capacity [J/K/mol], [3]
Settings | 283.15 K | 293.15 K | 298.15 K | 303.15 K | 313.15 K
x1 = 0.00991 | 0.43 ± 0.43 | 0.3 ± 0.43 | 0.26 ± 0.43 | 0.26 ± 0.43 | 0.37 ± 0.43
x1 = 0.02619 | 0.87 ± 0.43 | 0.79 ± 0.43 | 0.76 ± 0.43 | 0.75 ± 0.43 | 0.74 ± 0.43
x1 = 0.04637 | 1.03 ± 0.43 | 1.25 ± 0.43 | 1.33 ± 0.43 | 1.39 ± 0.43 | 1.5 ± 0.43
x1 = 0.07516 | 1.32 ± 0.43 | 1.72 ± 0.43 | 1.85 ± 0.43 | 1.96 ± 0.43 | 2.17 ± 0.44
x1 = 0.09514 | – | – | 1.99 ± 0.43 | 2.2 ± 0.44 | 2.5 ± 0.44
x1 = 0.1016 | 1.26 ± 0.43 | – | – | – | –
x1 = 0.1245 | 1.16 ± 0.43 | 1.91 ± 0.43 | 2.17 ± 0.44 | 2.38 ± 0.44 | 2.76 ± 0.44
x1 = 0.1491 | 0.94 ± 0.43 | 1.76 ± 0.43 | 2.08 ± 0.43 | 2.35 ± 0.44 | 2.82 ± 0.44
x1 = 0.1731 | 0.76 ± 0.43 | 1.68 ± 0.43 | 2.01 ± 0.43 | 2.29 ± 0.44 | –
x1 = 0.2203 | – | – | – | – | 2.62 ± 0.44
x1 = 0.2903 | – | 0.61 ± 0.43 | 1.14 ± 0.43 | 1.6 ± 0.43 | 2.42 ± 0.44
x1 = 0.4076 | – | 0.05 ± 0.42 | 0.54 ± 0.43 | 0.98 ± 0.43 | 1.82 ± 0.43
x1 = 0.4641 | – | – | 0.35 ± 0.43 | 0.78 ± 0.43 | 1.58 ± 0.43
x1 = 0.6066 | – | – | 0.02 | 0.035 | 0.96 ± 0.43
x1 = 0.6959 | – | – | – | 0.15 ± 0.43 | 0.63 ± 0.43
x1 = 0.804 | – | – | – | – | 0.18 ± 0.43
